Measured values: patent publication US20240109864A1, “SUBSTITUTED PYRAZOLYL PIPERIDINE CARBOXYLIC ACIDS” (BAYER AKTIENGESELLSCHAFT, priority 2020, published 2024)
Where a name gives a salt, the structure may show the parent alone.

Target: T1, recombinant guanylate cyclase reporter cell line (Rattus norvegicus, UniProt P20595)
T1 construct: expressed in transfected cells
T1 sequence (P20595 1-619): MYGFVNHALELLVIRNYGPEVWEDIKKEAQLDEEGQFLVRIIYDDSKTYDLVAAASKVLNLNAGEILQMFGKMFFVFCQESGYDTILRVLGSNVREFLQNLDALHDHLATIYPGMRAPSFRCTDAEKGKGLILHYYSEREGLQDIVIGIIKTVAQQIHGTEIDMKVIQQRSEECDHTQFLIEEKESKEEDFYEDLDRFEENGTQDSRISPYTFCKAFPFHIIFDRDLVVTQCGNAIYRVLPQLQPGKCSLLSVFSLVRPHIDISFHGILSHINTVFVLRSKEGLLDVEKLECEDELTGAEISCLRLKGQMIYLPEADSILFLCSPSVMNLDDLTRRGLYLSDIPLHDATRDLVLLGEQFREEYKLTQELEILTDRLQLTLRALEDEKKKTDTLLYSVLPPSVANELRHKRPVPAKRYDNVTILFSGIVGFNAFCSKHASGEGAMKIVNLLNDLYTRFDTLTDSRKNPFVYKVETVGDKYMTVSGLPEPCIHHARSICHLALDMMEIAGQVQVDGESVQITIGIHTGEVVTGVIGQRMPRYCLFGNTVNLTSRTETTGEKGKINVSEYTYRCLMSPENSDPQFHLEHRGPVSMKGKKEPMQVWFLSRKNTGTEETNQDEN
T1 sequence (P19686 1-690 partner): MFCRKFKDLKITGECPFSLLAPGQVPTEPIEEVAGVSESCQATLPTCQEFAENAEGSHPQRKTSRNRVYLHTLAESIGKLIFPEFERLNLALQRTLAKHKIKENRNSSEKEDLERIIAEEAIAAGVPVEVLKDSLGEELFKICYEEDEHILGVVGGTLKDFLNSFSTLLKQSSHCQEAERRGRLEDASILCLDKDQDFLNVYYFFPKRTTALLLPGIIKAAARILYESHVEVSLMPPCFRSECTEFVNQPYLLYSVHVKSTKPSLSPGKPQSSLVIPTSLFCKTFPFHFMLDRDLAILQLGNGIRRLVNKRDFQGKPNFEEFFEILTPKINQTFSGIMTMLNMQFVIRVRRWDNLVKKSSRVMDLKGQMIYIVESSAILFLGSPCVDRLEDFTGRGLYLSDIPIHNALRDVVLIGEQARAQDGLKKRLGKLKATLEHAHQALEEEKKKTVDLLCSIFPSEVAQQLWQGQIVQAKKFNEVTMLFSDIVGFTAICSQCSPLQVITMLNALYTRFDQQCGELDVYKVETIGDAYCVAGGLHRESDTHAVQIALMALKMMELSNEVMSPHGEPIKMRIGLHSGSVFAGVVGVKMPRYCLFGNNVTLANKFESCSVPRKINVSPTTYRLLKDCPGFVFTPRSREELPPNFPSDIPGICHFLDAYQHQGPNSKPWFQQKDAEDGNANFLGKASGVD
Assay: Effect on a recombinant guanylate cyclase reporter cell line
Type: cell-based
Conditions: in some cases mean values from individual determinations; for MEC: MEC = minimum effective concentration; for EC50: half maximal effective concentration
Description: The cellular activity of the compounds according to the invention was determined using a recombinant guanylate cyclase reporter cell line, as described in F. Wunder et al., Anal. Biochem. 339, 104-112 (2005).

MEC [nM] | EC50 [nM] | SMILES
3.0 | 15.5 | CC(C)C(=O)N1CCN(c2ccc(-c3ccc(Cl)cc3N3CCCC(n4ncc(C(=O)O)c4C(F)(F)F)C3)cc2)CC1 (single isomer, unassigned) [Example 38, 1-[1-[5-Chloro-2-[4-[4-(2-methylpropanoyl)piperazin-1-yl]phenyl]phenyl]-3-piperidyl]-5-(trifluoromethyl)pyrazole-4-carboxylic acid]
10.0 | 59 | CC(C)(F)C(=O)N1CCN(c2ccc(-c3ccc(Cl)cc3N3CCCC(n4ncc(C(=O)O)c4C(F)(F)F)C3)cc2)CC1 (single isomer, unassigned) [Example 39, 1-[1-[5-Chloro-2-[4-[4-(2-fluoro-2-methyl-propanoyl)piperazin-1-yl]phenyl]phenyl]-3-piperidyl]-5-(trifluoromethyl)pyrazole-4-carboxylic acid]
3.0 | 19 | CCCC(=O)N1CCN(c2ccc(-c3ccc(Cl)cc3N3CCCC(n4ncc(C(=O)O)c4C(F)(F)F)C3)cc2)CC1 (single isomer, unassigned) [Example 40, 1-[1-[2-[4-(4-Butanoylpiperazin-1-yl)phenyl]-5-chloro-phenyl]-3-piperidyl]-5-(trifluoromethyl)pyrazole-4-carboxylic acid]
3.0 | 44 | COCCC(=O)N1CCN(c2ccc(-c3ccc(Cl)cc3N3CCCC(n4ncc(C(=O)O)c4C(F)(F)F)C3)cc2)CC1 (single isomer, unassigned) [Example 41, 1-[1-[5-Chloro-2-[4-[4-(3-methoxypropanoyl)piperazin-1-yl]phenyl]phenyl]-3-piperidyl]-5-(trifluoromethyl)pyrazole-4-carboxylic acid]
1.0 | 4.2 | O=C(O)c1cnn(C2CCCN(c3cc(Cl)ccc3-c3ccc(N4CCN(C(=O)C5CC5)CC4)cc3)C2)c1C(F)(F)F (single isomer, unassigned) [Example 42, 1-[1-[5-Chloro-2-[4-[4-(cyclopropanecarbonyl)piperazin-1-yl]phenyl]phenyl]-3-piperidyl]-5-(trifluoromethyl)pyrazole-4-carboxylic acid]
1.0 | 15.1 | O=C(O)c1cnn(C2CCCN(c3cc(Cl)ccc3-c3ccc(N4CCN(C(=O)C5(F)CC5)CC4)cc3)C2)c1C(F)(F)F (single isomer, unassigned) [Example 43, 1-[1-[5-Chloro-2-[4-[4-(1-fluorocyclopropanecarbonyl)piperazin-1-yl]phenyl]phenyl]-3-piperidyl]-5-(trifluoromethyl)pyrazole-4-carboxylic acid]
10.0 | 34.5 | O=C(O)c1cnn(C2CCCN(c3cc(Cl)ccc3-c3ccc(N4CCN(C(=O)C5CC5F)CC4)cc3)C2)c1C(F)(F)F (single isomer, unassigned) [Example 44, 1-[1-[5-Chloro-2-[4-[4-(2-fluorocyclopropanecarbonyl)piperazin-1-yl]phenyl]phenyl]-3-piperidyl]-5-(trifluoromethyl)pyrazole-4-carboxylic acid]
3.0 | 14 | O=C(O)c1cnn(C2CCCN(c3cc(Cl)ccc3-c3ccc(N4CCN(C(=O)[C@H]5C[C@H]5F)CC4)cc3)C2)c1C(F)(F)F (single isomer, unassigned) [Example 45, hydrochloride]
3.0 | 14.5 | O=C(O)c1cnn(C2CCCN(c3cc(Cl)ccc3-c3ccc(N4CCN(C(=O)[C@@H]5C[C@@H]5F)CC4)cc3)C2)c1C(F)(F)F (single isomer, unassigned) [Example 46]
3.0 | 17 | O=C(O)c1cnn(C2CCCN(c3cc(Cl)ccc3-c3ccc(N4CCN(C(=O)C5CC5(F)F)CC4)cc3)C2)c1C(F)(F)F (single isomer, unassigned) [Example 47, 1-[1-[5-Chloro-2-[4-[4-[2,2-difluorocyclopropanecarbonyl]piperazin-1-yl]phenyl]phenyl]-3-piperidyl]-5-(trifluoromethyl)pyrazole-4-carboxylic acid]
3.0 | 10.6 | O=C(O)c1cnn(C2CCCN(c3cc(Cl)ccc3-c3ccc(N4CCN(C(=O)[C@H]5CC5(F)F)CC4)cc3)C2)c1C(F)(F)F (single isomer, unassigned) [Example 48, 1-[1-[5-Chloro-2-[4-[4-[2,2-difluorocyclopropanecarbonyl]piperazin-1-yl]phenyl]phenyl]-3-piperidyl]-5-(trifluoromethyl)pyrazole-4-carboxylic acid]
1.0 | 3.5 | O=C(O)c1cnn(C2CCCN(c3cc(Cl)ccc3-c3ccc(N4CCN(C(=O)C5CCC5)CC4)cc3)C2)c1C(F)(F)F (single isomer, unassigned) [Example 49, 1-[1-[5-Chloro-2-[4-[4-(cyclobutanecarbonyl)piperazin-1-yl]phenyl]phenyl]-3-piperidyl]-5-(trifluoromethyl)pyrazole-4-carboxylic acid hydrochloride]
10.0 | 47.5 | O=C(O)c1cnn(C2CCCN(c3cc(Cl)ccc3-c3ccc(N4CCN(C(=O)C5CC(F)(F)C5)CC4)cc3)C2)c1C(F)(F)F (single isomer, unassigned) [Example 50, 1-[1-[5-Chloro-2-[4-[4-(3,3-difluorocyclobutanecarbonyl)piperazin-1-yl]phenyl]phenyl]-3-piperidyl]-5-(trifluoromethyl)pyrazole-4-carboxylic acid]
3.0 | 9.4 | O=C(O)c1cnn(C2CCCN(c3cc(Cl)ccc3-c3ccc(N4CCN(C(=O)C56CC(F)(C5)C6)CC4)cc3)C2)c1C(F)(F)F (single isomer, unassigned) [Example 51, 1-[1-[5-Chloro-2-[4-[4-(3-fluorobicyclo[1.1.1]pentane-1-carbonyl)piperazin-1-yl]phenyl]phenyl]-3-piperidyl]-5-(trifluoromethyl)pyrazole-4-carboxylic acid]
10.0 | 31 | CC(C)CC(=O)N1CCN(c2ccc(-c3ccc(Cl)cc3N3CCCC(n4ncc(C(=O)O)c4C(F)(F)F)C3)cc2)CC1 (single isomer, unassigned) [Example 52, 1-[1-[5-Chloro-2-[4-[4-(3-methylbutanoyl)piperazin-1-yl]phenyl]phenyl]-3-piperidyl]-5-(trifluoromethyl)pyrazole-4-carboxylic acid]
10.0 | 22 | O=C(O)c1cnn(C2CCCN(c3cc(Cl)ccc3-c3ccc(N4CCN(C(=O)C5CC56CC6)CC4)cc3)C2)c1C(F)(F)F (single isomer, unassigned) [Example 53, 1-[1-{4-chloro-4′-[4-(spiro[2.2]pentane-1-carbonyl)piperazin-1-yl][1,1′-biphenyl]-2-yl}piperidin-3-yl]-5-(trifluoromethyl)-1H-pyrazole-4-carboxylic acid]
3.0 | 11.1 | COC(=O)N1CCN(c2ccc(-c3ccc(Cl)cc3N3CCCC(n4ncc(C(=O)O)c4C(F)(F)F)C3)cc2)CC1 (single isomer, unassigned) [Example 54, 1-[1-[5-Chloro-2-[4-(4-methoxycarbonylpiperazin-1-yl)phenyl]phenyl]-3-piperidyl]-5-(trifluoromethyl)pyrazole-4-carboxylic acid]
